Measured values taken from patent US20160008382A1, “METHODS OF TREATMENT OF CANCER” (Millennium Pharmaceuticals, Inc., priority 2012, published 2016).

Columns and labels:
nasopharyngeal cancer = test: Treatment of nasopharyngeal cancer patients with the compound of formula (III-A), IV twice-weekly; clinical response; format: in vivo, human
Experimental: (1) Tissue Microarray (obtained from US Biomax, Inc.) of primary nasopharyngeal cancer (n=35) (2) Tissue Microarray of metastatic nasopharyngeal cancer (obtained from US Biomax, Inc.) (n=15) (3) Tissue Microarray of other histologies of head and neck cancers (obtained from US Biomax, Inc.) (n=68) (4) Archival primary tumor biopsy samples of patients with head and neck squamous cell cancers (n=14). All samples were obtained under the appropriate informed consent. The patients were administered the compound of formula (III-A) on a twice-weekly schedule (days 1, 4, 8 and 11 of a 21-day cycle) as an IV injection. Of the primary tumor samples in (4), there were three patients with nasopharyngeal cancer.

[1] = test system: hematological and solid tumor xenograft models; conditions: range of hematological and solid tumor xenograft models; cited from earlier work
[2] = on exposure to aqueous solution or plasma; cited from earlier work
[3] = test system: relapsed or refractory mantle cell lymphoma; conditions: patients with relapsed or refractory mantle cell lymphoma, Phase II; cited from earlier work

Structure (SMILES)	clinical response, Patient 1 (nasopharyngeal cancer; Patient 1, metastatic nasopharyngeal cancer of a squamous cell type, IV injection days 1, 4, 8 and 11 of a 21-day cycle, NFκB p65 H-score 300)	Responder/Non-responder, Patient 1 (nasopharyngeal cancer; Patient 1, nasopharyngeal cancer, NFκB p65 IHC assay H-score 300)	disease progression, Patient 2 (time to progression) (nasopharyngeal cancer; Patient 2, nasopharyngeal cancer, IV injection days 1, 4, 8 and 11 of a 21-day cycle, NFκB p65 H-score 200) [cycles]	Responder/Non-responder, Patient 2 (nasopharyngeal cancer; Patient 2, nasopharyngeal cancer, NFκB p65 IHC assay H-score 200)	clinical response, Patient 3 (nasopharyngeal cancer; Patient 3, nasopharyngeal cancer, IV injection days 1, 4, 8 and 11 of a 21-day cycle, NFκB p65 H-score 160)	Responder/Non-responder, Patient 3 (nasopharyngeal cancer; Patient 3, nasopharyngeal cancer, NFκB p65 IHC assay H-score 160)	anti-tumor activity in xenograft models [1]	hydrolysis to the active form MLN2238 [2]	activity in patients [3]
CC(C)C[C@H](NC(=O)CNC(=O)c1cc(Cl)ccc1Cl)B1OC(=O)C(CC(=O)O)(CC(=O)O)O1 [compound of formula (III-A), 2,2′-{2-[(1R)-1-({[(2,5-dichlorobenzoyl)amino]acetyl}amino)-3-methylbutyl]-5-oxo-1,3,2-dioxaborolane-4,4-diyl}diacetic acid]	durable partial response	Responder	≤ 4	Non-responder	progressive disease	Non-responder	anti-tumor activity	rapidly hydrolyzes	–
CC(C)C[C@H](NC(=O)[C@H](Cc1ccccc1)NC(=O)c1cnccn1)B(O)O [bortezomib, N-2-pyrazinecarbonyl-L-phenylalanine-L-leucineboronic acid]	–	–	–	–	–	–	–	–	activity
